Measured values taken from paper PMC9727064, “Performance assessment and economic analysis of a human Liver-Chip for predictive toxicology” (Communications Medicine, 2022).
Entries after “also recorded” stand apart in the source; their conditions may differ. Like-named read-outs stand apart in the source and are kept apart here.

How the values were obtained:
human Liver-Chip = assay: Liver-Chip DILI prediction: minimum toxic concentration and margin of safety (MOS)-like figure; details: for Chip MOS both donors / Chip MOS donor 1 / Chip MOS donor 2: free IC50 concentration in the assay divided by total concentration of drug in human plasma at Cmax; for Liver-Chip toxicity determination, MOS-like figure against threshold value of 50: not corrected for protein binding, donors one and two;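 as to Chip MOS both donors: Toxic concentration is the lowest across albumin IC50 and ALT and morphology endpoints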;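 as to Chip MOS donor 1: Toxic concentration is the lowest across albumin IC50 and ALT and morphology endpoints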;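 as to Chip MOS donor 2: Toxic concentration is the lowest across albumin IC50 and ALT and morphology endpoints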
Description: Because the fundamental principles of drug action dictate that free (unbound) drug concentrations drive drug effects, we explored an alternative methodology for calculating the MOS-like values by accounting for protein binding using a previously reported approach. Accordingly, we reanalyzed the findings for the 27 drugs in our study by accounting for protein binding.

[1] = cited from earlier work
[2] = tested on: 3D spheroid cultures of primary human hepatocytes; details: cited from earlier work; for Spheroid MOS: 3D hepatic spheroids, previously published data; for Spheroid false negative: Yes/No, also No for drugs not tested in spheroid; for Toxicity detection in 3D hepatic spheroids: threshold 50
[3] = tested on: human Liver-Chip (Kupffer cell activation); assay: IL-6 and TNF-alpha in Liver-Chip effluent (MSD U-PLEX); details: effluent of Liver-Chips from three donors, no inflammatory stimulant
Description: Samples were added to plates manually at a 1:2 dilution. Plates were read for cytokine release on the MESO QuickPlex SQ 120 (Meso Scale Discoveries).

[4] = human, total plasma Cmax, ref Vorrink, S. U., Zhou, Y., Ingelman- Sundberg, M. & Lauschke, V.M. (30)
[5] = human, total plasma Cmax, ref Xu, J. J. et al. (36)
[6] = human, total plasma Cmax, reference data from the literature, no reference

Row | Structure (SMILES) | Chip MOS both donors (human Liver-Chip) | Chip MOS donor 1 (human Liver-Chip) | Chip MOS donor 2 (human Liver-Chip) | Spheroid MOS [2] | Spheroid false negative [2] | further results
1 | COC(c1ccccc1)(c1ccccc1)[C@H](Oc1nc(C)cc(C)n1)C(=O)O [Ambrisentan] | >10 | >3 | >10 | >127 | No | Human Cmax Total ([1]; human, total plasma Cmax, ref Proctor, W.R. et al. (29)): 790 nM
2 | C=C[C@@H]1C[C@]1(NC(=O)[C@@H]1C[C@@H](Oc2ncc(OC)c3ccc(Cl)cc23)CN1C(=O)[C@@H](NC(=O)OC(C)(C)C)C(C)(C)C)C(=O)NS(=O)(=O)C1CC1 [Asunaprevir] | – | 4 | – | – | No | Human Cmax Total ([1]; human, total plasma Cmax, ref Schulz, M. & Schmoldt, A. (64)): 764.4 nM
3 | CC(C(=O)O)c1ccc2oc(-c3ccc(Cl)cc3)nc2c1 (stereo not drawn) [Benoxaprofen] | 0.001 | 0.001 | 0.3 | >0.7 | Yes | Liver-Chip toxicity determination, MOS-like figure against threshold value of 50 (human Liver-Chip): hepatotoxic; Human Cmax Total ([1]; human, total plasma Cmax, ref Chatsiricharoenkul, S., Niyomnaitham, Pongnarin, P., Sathirakul, K. & Kongpatanakul, S. (66)): 149100 nM
4 | CCN(CC)C(=O)/C(C#N)=C/c1cc(O)c(O)c([N+](=O)[O-])c1 [Entacapone] | – | >6 | – | 46.5 | No | Human Cmax Total ([1]; human, total plasma Cmax, ref Lombardo, F., Berellini, G. & Obach, R. S. (70)): 3300 nM
5 | O=c1[nH]c(=O)n([C@@H]2O[C@H](CO)[C@@H](O)[C@@H]2F)cc1I [FIRU] | >108 | >108 | >108 | – | No | Human Cmax Total [1, 4]: *0.64µM
6 | O=c1[nH]c(=O)n([C@@H]2O[C@H](CO)[C@@H](O)[C@@H]2F)cc1I [Fialuridine] | 0.1 | 0.1 | 2.8 | 12.3 | No | Human Cmax Total [1, 4]: 640 nM
7 | CC(CCc1ccccc1)NCC(O)c1ccc(O)c(C(N)=O)c1 (stereo not drawn) [Labetalol] | 22 | 26 | 22 | – | Yes | Liver-Chip toxicity determination, MOS-like figure against threshold value of 50 (human Liver-Chip): hepatotoxic; Human Cmax Total [1, 4]: 2680 nM
8 | C[C@H]1COc2c(N3CCN(C)CC3)c(F)cc3c(=O)c(C(=O)O)cn1c23 [Levofloxacin] | >33.7 | >11.3 | >33.7 | – | Yes | Liver-Chip toxicity determination, MOS-like figure against threshold value of 50 (human Liver-Chip): not detected; Human Cmax Total [1, 5]: 15800 nM; Toxicity detection in 3D hepatic spheroids [2]: not detected as toxic drugs in spheroids; IL-6 and TNFα cytokine production after treatment [3]: no concentration-dependent change in cytokine levels; also recorded: did not detect any concentration-related change; also recorded: unable to see any concentration-dependent increase in cytokine production
9 | O=C(NC1CCN(CCCCC2(C(=O)NCC(F)(F)F)c3ccccc3-c3ccccc32)CC1)c1ccccc1-c1ccc(C(F)(F)F)cc1 [Lomitapide] | – | 0 | – | – | No | Hepatotoxicity in the Liver-Chip, in words (human Liver-Chip; albumin, ALT and morphology endpoints together): highly toxic; Human Cmax Total ([1]; human, total plasma Cmax, ref Dawson, S., Stahl, Paul, N., Barber, J. & Kenna, J. G. (71)): 1.7 nM
10 | CCc1nn(CCCN2CCN(c3cccc(Cl)c3)CC2)c(=O)n1CCOc1ccccc1 [Nefazodone] | – | 1.4 | – | 6.8 | No | –
11 | Cc1cc2c(s1)Nc1ccccc1N=C2N1CCN(C)CC1 [Olanzapine] | >20 | >20 | >2 | – | No | Human Cmax Total ([1]; human, total plasma Cmax, ref Brunton, L. L., Hilal-Dandan, R. & Knollmann, B. C. (72)): 0.09 nM
12 | CCc1ccc(CCOc2ccc(CC3SC(=O)NC3=O)cc2)nc1 (stereo not drawn) [Pioglitazone] | 2.8 | 2.8 | > 2.8 | > 5.3 | Yes | Human Cmax Total [1, 5]: 3000 nM
13 | Cc1cc2c(cc1CC(=O)c1sccc1S(=O)(=O)Nc1onc(C)c1Cl)OCO2 [Sitaxsentan] | 0.04 | 0.04 | 1.6 | 8.7 | No | –
14 | Cc1cn([C@H]2C=C[C@@H](CO)O2)c(=O)[nH]c1=O [Stavudine] | 107 | 247 | 107 | >144 | Yes | Liver-Chip toxicity determination, protein-binding-corrected MOS-like figure, threshold 375 (human Liver-Chip; 18 drugs tested in both donors): detection; Liver-Chip toxicity determination, MOS-like figure against threshold value of 50 (human Liver-Chip): not detected; also recorded: false negative; Human Cmax Total [1, 5]: 3460 nM; Toxicity detection in 3D hepatic spheroids [2]: not detected as toxic drugs in spheroids
15 | Nc1c2c(nc3ccccc13)CCCC2 [Tacrine] | >12 | >12 | >12 | 696 | Yes | Liver-Chip toxicity determination, MOS-like figure against threshold value of 50 (human Liver-Chip): not detected; Human Cmax Total [1, 5]: 100 nM; Toxicity detection in 3D hepatic spheroids [2]: not detected as toxic drugs in spheroids
16 | CC[C@H]1OC(=O)[C@H](C)C(=O)[C@H](C)[C@@H](O[C@@H]2O[C@H](C)C[C@H](N(C)C)[C@H]2O)[C@](C)(OC)C[C@@H](C)C(=O)[C@H](C)[C@H]2N(CCCCn3cnc(-c4cccnc4)c3)C(=O)O[C@]12C [Telithromycin] | – | 6 | – | – | No | Human Cmax Total [1, 6]: 2790 nM
17 | Cc1ccc(C(=O)c2cc(O)c(O)c([N+](=O)[O-])c2)cc1 [Tolcapone] | 0.004 | 0.004 | 0.05 | 0.3 | No | Human Cmax Total [1, 6]: 47600 nM
18 | Cc1c(C)c2c(c(C)c1O)CCC(C)(COc1ccc(CC3SC(=O)NC3=O)cc1)O2 (stereo not drawn) [Troglitazone] | 0.03 | 0.03 | 0.1 | 2.3 | No | Human Cmax Total [1, 5]: 6080 nM
19 | N[C@@H]1[C@H]2CN(c3nc4c(cc3F)c(=O)c(C(=O)O)cn4-c3ccc(F)cc3F)C[C@@H]12 [Trovafloxacin] | – | – | – | – | – | IL-6 and TNFα cytokine production after treatment [3]: no concentration-dependent change in cytokine levels; also recorded: did not detect any concentration-related change; also recorded: unable to see any concentration-dependent increase in cytokine production
20 | CCOC(=O)CN[C@@H](C(=O)N1CC[C@H]1C(=O)NCc1ccc(/C(N)=N\O)cc1)C1CCCCC1 [Ximelagatran] | 30 | 30 | 300 | 335 | Yes | Liver-Chip toxicity determination, MOS-like figure against threshold value of 50 (human Liver-Chip): only toxic in one of the donors tested; Human Cmax Total ([1]; human therapeutic total plasma Cmax from literature, ref Sivapalasingam, S. & Steigbigel, N. (67)): 450 nM
21 | CC(c1cc2ccccc2s1)N(O)C(N)=O (stereo not drawn) [Zileuton] | 15 | >7 | 15 | >7.7 | Yes | Human Cmax Total ([1]; human therapeutic total plasma Cmax from literature, ref Xu, J. J. et al. (36)): 13100 nM
